{"source": "the kinase profiling compilation of Christmann-Franck et al. (2016)", "assay_in_all_cases": "radiometric filter-binding kinase assay, Kinase HotSpot", "conditions_in_all_cases": "compound 0.5 µM; ATP 10 µM", "key": {"[1]": {"biological_target": "ACVR1B (human) (UniProt P36896)"}, "[2]": {"biological_target": "ACVRL1 (human) (UniProt P37023)"}, "[3]": {"biological_target": "ALK (human) (UniProt Q9UM73)", "sequence (Q9UM73 whole entry, looked up)": "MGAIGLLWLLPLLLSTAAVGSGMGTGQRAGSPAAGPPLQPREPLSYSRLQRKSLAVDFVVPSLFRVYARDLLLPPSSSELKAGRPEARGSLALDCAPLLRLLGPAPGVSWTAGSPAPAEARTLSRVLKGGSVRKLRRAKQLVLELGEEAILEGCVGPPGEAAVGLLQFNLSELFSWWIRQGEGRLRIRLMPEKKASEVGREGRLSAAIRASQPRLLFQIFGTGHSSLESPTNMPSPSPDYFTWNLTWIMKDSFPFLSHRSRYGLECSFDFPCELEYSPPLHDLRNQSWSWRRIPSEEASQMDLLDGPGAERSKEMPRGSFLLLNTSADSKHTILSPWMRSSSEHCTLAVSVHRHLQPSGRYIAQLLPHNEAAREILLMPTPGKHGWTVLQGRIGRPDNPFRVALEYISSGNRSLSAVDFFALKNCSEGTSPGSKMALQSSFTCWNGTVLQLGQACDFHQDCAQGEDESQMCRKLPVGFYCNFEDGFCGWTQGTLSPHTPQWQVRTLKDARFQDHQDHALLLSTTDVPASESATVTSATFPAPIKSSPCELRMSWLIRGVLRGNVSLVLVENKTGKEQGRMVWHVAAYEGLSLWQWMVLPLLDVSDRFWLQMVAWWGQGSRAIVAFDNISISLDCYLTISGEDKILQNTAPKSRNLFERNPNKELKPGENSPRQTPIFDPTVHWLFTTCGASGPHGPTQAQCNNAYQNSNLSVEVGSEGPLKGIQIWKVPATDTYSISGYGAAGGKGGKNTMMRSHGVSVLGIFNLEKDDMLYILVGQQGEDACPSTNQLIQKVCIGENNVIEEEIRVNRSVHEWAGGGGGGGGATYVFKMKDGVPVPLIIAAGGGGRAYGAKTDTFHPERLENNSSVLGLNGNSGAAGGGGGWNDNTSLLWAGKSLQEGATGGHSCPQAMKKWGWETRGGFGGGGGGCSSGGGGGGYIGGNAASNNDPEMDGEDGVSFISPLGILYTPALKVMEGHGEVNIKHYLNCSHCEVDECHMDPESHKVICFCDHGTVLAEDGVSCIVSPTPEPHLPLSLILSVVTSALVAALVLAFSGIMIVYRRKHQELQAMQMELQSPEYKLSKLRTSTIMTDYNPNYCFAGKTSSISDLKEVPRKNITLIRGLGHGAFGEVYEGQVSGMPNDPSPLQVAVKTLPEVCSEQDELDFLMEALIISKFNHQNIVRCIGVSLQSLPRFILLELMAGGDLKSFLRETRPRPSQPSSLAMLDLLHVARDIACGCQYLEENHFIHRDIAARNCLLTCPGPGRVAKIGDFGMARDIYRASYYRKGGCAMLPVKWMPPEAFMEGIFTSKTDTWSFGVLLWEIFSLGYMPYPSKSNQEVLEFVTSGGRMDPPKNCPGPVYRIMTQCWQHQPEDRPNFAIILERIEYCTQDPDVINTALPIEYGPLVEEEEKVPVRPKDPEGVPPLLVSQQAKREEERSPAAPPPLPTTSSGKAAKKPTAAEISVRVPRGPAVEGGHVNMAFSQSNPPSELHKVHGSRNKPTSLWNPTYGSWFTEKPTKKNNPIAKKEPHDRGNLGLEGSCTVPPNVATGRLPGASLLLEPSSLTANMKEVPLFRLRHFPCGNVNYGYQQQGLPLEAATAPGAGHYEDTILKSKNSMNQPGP"}, "[4]": {"biological_target": "AURKC (human) (UniProt Q9UQB9)", "sequence (Q9UQB9 whole entry, looked up)": "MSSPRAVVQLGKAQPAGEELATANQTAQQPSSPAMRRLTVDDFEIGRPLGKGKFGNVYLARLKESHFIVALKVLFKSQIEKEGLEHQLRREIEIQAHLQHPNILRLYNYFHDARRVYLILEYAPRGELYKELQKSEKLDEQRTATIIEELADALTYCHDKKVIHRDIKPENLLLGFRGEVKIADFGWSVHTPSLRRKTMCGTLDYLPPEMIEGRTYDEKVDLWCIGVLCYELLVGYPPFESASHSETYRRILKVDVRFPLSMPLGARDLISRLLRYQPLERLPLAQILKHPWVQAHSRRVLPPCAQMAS"}, "[5]": {"biological_target": "CAMK1D (human) (UniProt Q8IU85)"}, "[6]": {"biological_target": "CDC42BPB (human) (UniProt Q9Y5S2)"}, "[7]": {"biological_target": "CSNK1A1 (human) (UniProt P48729)"}, "[8]": {"biological_target": "CSNK1E (human) (UniProt P49674)"}, "[9]": {"biological_target": "DAPK2 (human) (UniProt Q9UIK4)"}, "[10]": {"biological_target": "EGFR (human) (UniProt P00533)", "sequence (P00533 whole entry, looked up)": "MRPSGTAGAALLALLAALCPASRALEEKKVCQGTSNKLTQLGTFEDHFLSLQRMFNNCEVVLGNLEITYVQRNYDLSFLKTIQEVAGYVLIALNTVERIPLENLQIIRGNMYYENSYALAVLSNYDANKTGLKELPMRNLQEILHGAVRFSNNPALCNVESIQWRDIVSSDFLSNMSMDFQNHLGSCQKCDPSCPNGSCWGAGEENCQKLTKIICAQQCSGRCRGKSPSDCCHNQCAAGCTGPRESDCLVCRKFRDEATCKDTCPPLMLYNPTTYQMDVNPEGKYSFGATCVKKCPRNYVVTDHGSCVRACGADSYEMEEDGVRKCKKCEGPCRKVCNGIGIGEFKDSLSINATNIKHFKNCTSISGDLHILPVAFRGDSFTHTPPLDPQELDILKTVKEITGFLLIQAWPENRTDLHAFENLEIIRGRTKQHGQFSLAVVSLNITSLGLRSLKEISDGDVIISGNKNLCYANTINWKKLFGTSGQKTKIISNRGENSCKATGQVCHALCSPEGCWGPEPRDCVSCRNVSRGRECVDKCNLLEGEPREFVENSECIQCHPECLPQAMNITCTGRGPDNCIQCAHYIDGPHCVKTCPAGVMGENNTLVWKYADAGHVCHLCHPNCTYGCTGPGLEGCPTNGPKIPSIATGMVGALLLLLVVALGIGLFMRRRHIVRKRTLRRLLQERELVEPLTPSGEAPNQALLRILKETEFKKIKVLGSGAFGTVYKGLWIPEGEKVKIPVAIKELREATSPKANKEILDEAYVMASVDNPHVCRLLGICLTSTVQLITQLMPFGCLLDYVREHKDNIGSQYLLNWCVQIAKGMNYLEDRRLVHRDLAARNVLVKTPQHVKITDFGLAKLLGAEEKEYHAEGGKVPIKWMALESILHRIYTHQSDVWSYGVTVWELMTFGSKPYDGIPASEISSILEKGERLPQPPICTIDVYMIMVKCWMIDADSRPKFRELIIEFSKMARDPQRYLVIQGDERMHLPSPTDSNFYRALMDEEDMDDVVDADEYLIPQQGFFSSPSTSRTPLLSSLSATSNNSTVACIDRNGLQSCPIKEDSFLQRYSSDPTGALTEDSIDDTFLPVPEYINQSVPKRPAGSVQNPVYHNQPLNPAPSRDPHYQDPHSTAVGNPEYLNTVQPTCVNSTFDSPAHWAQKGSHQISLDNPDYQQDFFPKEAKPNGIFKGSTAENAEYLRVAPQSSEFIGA"}, "[11]": {"biological_target": "EPHA1 (human) (UniProt P21709)"}, "[12]": {"biological_target": "FER (human) (UniProt P16591)"}, "[13]": {"biological_target": "FES (human) (UniProt P07332)"}, "[14]": {"biological_target": "FGFR4 (human) (UniProt P22455)"}, "[15]": {"biological_target": "HIPK4 (human) (UniProt Q8NE63)"}, "[16]": {"biological_target": "KIT (human) (UniProt P10721)"}, "[17]": {"biological_target": "LRRK2 (human) (UniProt Q5S007)"}, "[18]": {"biological_target": "MAP3K10 (human) (UniProt Q02779)"}, "[19]": {"biological_target": "MAP3K2 (human) (UniProt Q9Y2U5)"}, "[20]": {"biological_target": "MAP3K5 (human) (UniProt Q99683)"}, "[21]": {"biological_target": "MATK (human) (UniProt P42679)"}, "[22]": {"biological_target": "MERTK (human) (UniProt Q12866)"}, "[23]": {"biological_target": "MET (human) (UniProt P08581)"}, "[24]": {"biological_target": "NEK11 (human) (UniProt Q8NG66)", "sequence (Q8NG66 whole entry, looked up)": "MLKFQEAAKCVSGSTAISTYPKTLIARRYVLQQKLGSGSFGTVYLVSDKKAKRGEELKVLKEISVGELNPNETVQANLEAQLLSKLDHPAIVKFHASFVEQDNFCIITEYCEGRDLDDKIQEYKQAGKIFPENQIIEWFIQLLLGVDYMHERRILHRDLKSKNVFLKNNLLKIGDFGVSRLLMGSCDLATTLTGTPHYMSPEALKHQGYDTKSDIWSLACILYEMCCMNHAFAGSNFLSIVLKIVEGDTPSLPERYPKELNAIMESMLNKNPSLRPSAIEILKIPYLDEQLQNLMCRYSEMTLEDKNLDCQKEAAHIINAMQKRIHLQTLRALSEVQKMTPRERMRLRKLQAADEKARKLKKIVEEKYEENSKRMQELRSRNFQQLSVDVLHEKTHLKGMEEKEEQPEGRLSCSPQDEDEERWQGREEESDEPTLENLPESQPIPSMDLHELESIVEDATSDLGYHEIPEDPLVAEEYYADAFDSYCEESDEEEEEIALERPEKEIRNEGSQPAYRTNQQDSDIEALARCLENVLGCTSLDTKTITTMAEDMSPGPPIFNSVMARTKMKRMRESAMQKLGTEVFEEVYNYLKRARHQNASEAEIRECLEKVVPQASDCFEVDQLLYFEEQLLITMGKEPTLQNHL"}, "[25]": {"biological_target": "NLK (human) (UniProt Q9UBE8)"}, "[26]": {"biological_target": "NTRK2 (human) (UniProt Q16620)"}, "[27]": {"biological_target": "PAK2 (human) (UniProt Q13177)"}, "[28]": {"biological_target": "PDPK1 (human) (UniProt O15530)"}, "[29]": {"biological_target": "PIM1 (human) (UniProt P11309)"}, "[30]": {"biological_target": "PLK1 (human) (UniProt P53350)", "sequence (P53350 whole entry, looked up)": "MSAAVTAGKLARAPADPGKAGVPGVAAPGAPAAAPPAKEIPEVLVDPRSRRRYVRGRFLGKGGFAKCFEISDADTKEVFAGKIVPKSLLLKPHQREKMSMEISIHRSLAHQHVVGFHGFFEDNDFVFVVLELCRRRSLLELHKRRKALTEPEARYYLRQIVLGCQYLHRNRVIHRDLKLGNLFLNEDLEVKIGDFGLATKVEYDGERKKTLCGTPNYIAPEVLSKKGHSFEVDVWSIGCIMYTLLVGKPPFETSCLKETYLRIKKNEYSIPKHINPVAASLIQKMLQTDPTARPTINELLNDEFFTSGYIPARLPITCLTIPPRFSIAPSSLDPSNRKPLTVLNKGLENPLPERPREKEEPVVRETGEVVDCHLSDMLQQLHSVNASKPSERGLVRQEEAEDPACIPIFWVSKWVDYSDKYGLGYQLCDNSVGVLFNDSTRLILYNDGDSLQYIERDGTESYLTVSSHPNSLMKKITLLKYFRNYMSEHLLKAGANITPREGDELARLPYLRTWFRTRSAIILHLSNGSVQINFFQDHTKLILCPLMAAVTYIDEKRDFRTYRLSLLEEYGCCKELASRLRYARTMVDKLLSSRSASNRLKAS"}, "[31]": {"biological_target": "RAF1 (human) (UniProt P04049)"}, "[32]": {"biological_target": "RET (human) (UniProt P07949)"}, "[33]": {"biological_target": "ROCK2 (human) (UniProt O75116)"}, "[34]": {"biological_target": "ROS1 (human) (UniProt P08922)"}, "[35]": {"biological_target": "RPS6KB2 (human) (UniProt Q9UBS0)"}, "[36]": {"biological_target": "SLK (human) (UniProt Q9H2G2)"}, "[37]": {"biological_target": "SRPK2 (human) (UniProt P78362)", "sequence (P78362 whole entry, looked up)": "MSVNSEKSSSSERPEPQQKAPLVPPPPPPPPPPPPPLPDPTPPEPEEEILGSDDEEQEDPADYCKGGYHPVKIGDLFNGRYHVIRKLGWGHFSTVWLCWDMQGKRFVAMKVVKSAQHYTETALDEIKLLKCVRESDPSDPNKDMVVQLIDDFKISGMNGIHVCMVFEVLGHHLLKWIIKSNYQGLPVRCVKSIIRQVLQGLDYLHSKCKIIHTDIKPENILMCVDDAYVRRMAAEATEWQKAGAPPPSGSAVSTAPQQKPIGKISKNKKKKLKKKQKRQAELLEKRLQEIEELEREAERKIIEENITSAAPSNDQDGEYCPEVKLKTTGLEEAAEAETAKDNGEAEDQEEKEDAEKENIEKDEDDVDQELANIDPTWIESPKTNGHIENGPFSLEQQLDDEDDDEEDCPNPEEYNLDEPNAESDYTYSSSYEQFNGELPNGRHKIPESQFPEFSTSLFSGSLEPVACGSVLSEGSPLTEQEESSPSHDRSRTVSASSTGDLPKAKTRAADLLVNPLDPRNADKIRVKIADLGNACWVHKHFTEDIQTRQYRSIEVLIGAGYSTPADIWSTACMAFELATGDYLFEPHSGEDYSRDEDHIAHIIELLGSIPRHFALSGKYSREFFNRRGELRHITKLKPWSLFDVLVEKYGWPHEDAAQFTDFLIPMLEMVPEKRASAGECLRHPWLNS"}, "[38]": {"biological_target": "TGFBR2 (human) (UniProt P37173)"}, "[39]": {"biological_target": "TNK2 (human) (UniProt Q07912)"}, "[40]": {"biological_target": "TYK2 JH1 catalytic (human) (UniProt P29597)"}, "[41]": {"biological_target": "WNK2 (human) (UniProt Q9Y3S1)"}, "[42]": {"biological_target": "ZAP70 (human) (UniProt P43403)"}}}
{"smiles": "Oc1ccc(Nc2nc(-c3ccc(Cl)cc3)cs2)cc1", "values": [{"measurement": "residual activity", "setting": "[1]", "value": 89.5, "unit": "%"}, {"measurement": "residual activity", "setting": "[2]", "value": 103, "unit": "%"}, {"measurement": "residual activity", "setting": "[3]", "value": 111, "unit": "%"}, {"measurement": "residual activity", "setting": "[4]", "value": 97, "unit": "%"}, {"measurement": "residual activity", "setting": "[5]", "value": 103, "unit": "%"}, {"measurement": "residual activity", "setting": "[6]", "value": 108, "unit": "%"}, {"measurement": "residual activity", "setting": "[7]", "value": 96.4, "unit": "%"}, {"measurement": "residual activity", "setting": "[8]", "value": 103, "unit": "%"}, {"measurement": "residual activity", "setting": "[9]", "value": 107, "unit": "%"}, {"measurement": "residual activity", "setting": "[10]", "value": 95.3, "unit": "%"}, {"measurement": "residual activity", "setting": "[11]", "value": 92.6, "unit": "%"}, {"measurement": "residual activity", "setting": "[12]", "value": 90.3, "unit": "%"}, {"measurement": "residual activity", "setting": "[13]", "value": 103, "unit": "%"}, {"measurement": "residual activity", "setting": "[14]", "value": 71.6, "unit": "%"}, {"measurement": "residual activity", "setting": "[15]", "value": 101, "unit": "%"}, {"measurement": "residual activity", "setting": "[16]", "value": 92, "unit": "%"}, {"measurement": "residual activity", "setting": "[17]", "value": 98.7, "unit": "%"}, {"measurement": "residual activity", "setting": "[18]", "value": 100, "unit": "%"}, {"measurement": "residual activity", "setting": "[19]", "value": 92.1, "unit": "%"}, {"measurement": "residual activity", "setting": "[20]", "value": 108, "unit": "%"}, {"measurement": "residual activity", "setting": "[21]", "value": 95.6, "unit": "%"}, {"measurement": "residual activity", "setting": "[22]", "value": 97.1, "unit": "%"}, {"measurement": "residual activity", "setting": "[23]", "value": 99.4, "unit": "%"}, {"measurement": "residual activity", "setting": "[24]", "value": 77.1, "unit": "%"}, {"measurement": "residual activity", "setting": "[25]", "value": 101, "unit": "%"}, {"measurement": "residual activity", "setting": "[26]", "value": 107, "unit": "%"}, {"measurement": "residual activity", "setting": "[27]", "value": 87, "unit": "%"}, {"measurement": "residual activity", "setting": "[28]", "value": 101, "unit": "%"}, {"measurement": "residual activity", "setting": "[29]", "value": 103, "unit": "%"}, {"measurement": "residual activity", "setting": "[30]", "value": 106, "unit": "%"}, {"measurement": "residual activity", "setting": "[31]", "value": 95.7, "unit": "%"}, {"measurement": "residual activity", "setting": "[32]", "value": 99, "unit": "%"}, {"measurement": "residual activity", "setting": "[33]", "value": 99.4, "unit": "%"}, {"measurement": "residual activity", "setting": "[34]", "value": 96.9, "unit": "%"}, {"measurement": "residual activity", "setting": "[35]", "value": 99.8, "unit": "%"}, {"measurement": "residual activity", "setting": "[36]", "value": 110, "unit": "%"}, {"measurement": "residual activity", "setting": "[37]", "value": 104, "unit": "%"}, {"measurement": "residual activity", "setting": "[38]", "value": 112, "unit": "%"}, {"measurement": "residual activity", "setting": "[39]", "value": 103, "unit": "%"}, {"measurement": "residual activity", "setting": "[40]", "value": 110, "unit": "%"}, {"measurement": "residual activity", "setting": "[41]", "value": 101, "unit": "%"}, {"measurement": "residual activity", "setting": "[42]", "value": 94.7, "unit": "%"}]}
{"smiles": "O=C1NC(=O)/C(=C\\c2ccc3nccnc3c2)S1", "values": [{"measurement": "residual activity", "setting": "[1]", "value": 109, "unit": "%"}, {"measurement": "residual activity", "setting": "[2]", "value": 107, "unit": "%"}, {"measurement": "residual activity", "setting": "[3]", "value": 93.3, "unit": "%"}, {"measurement": "residual activity", "setting": "[4]", "value": 95.6, "unit": "%"}, {"measurement": "residual activity", "setting": "[5]", "value": 102, "unit": "%"}, {"measurement": "residual activity", "setting": "[6]", "value": 91.3, "unit": "%"}, {"measurement": "residual activity", "setting": "[7]", "value": 89.2, "unit": "%"}, {"measurement": "residual activity", "setting": "[8]", "value": 92.3, "unit": "%"}, {"measurement": "residual activity", "setting": "[9]", "value": 139, "unit": "%"}, {"measurement": "residual activity", "setting": "[10]", "value": 81.6, "unit": "%"}, {"measurement": "residual activity", "setting": "[11]", "value": 91.8, "unit": "%"}, {"measurement": "residual activity", "setting": "[12]", "value": 96.2, "unit": "%"}, {"measurement": "residual activity", "setting": "[13]", "value": 96.4, "unit": "%"}, {"measurement": "residual activity", "setting": "[14]", "value": 98, "unit": "%"}, {"measurement": "residual activity", "setting": "[15]", "value": 95, "unit": "%"}, {"measurement": "residual activity", "setting": "[16]", "value": 87.5, "unit": "%"}, {"measurement": "residual activity", "setting": "[17]", "value": 96, "unit": "%"}, {"measurement": "residual activity", "setting": "[18]", "value": 94.2, "unit": "%"}, {"measurement": "residual activity", "setting": "[19]", "value": 108, "unit": "%"}, {"measurement": "residual activity", "setting": "[20]", "value": 102, "unit": "%"}, {"measurement": "residual activity", "setting": "[21]", "value": 90.5, "unit": "%"}, {"measurement": "residual activity", "setting": "[22]", "value": 92.1, "unit": "%"}, {"measurement": "residual activity", "setting": "[23]", "value": 91.2, "unit": "%"}, {"measurement": "residual activity", "setting": "[24]", "value": 111, "unit": "%"}, {"measurement": "residual activity", "setting": "[25]", "value": 92.4, "unit": "%"}, {"measurement": "residual activity", "setting": "[26]", "value": 90.7, "unit": "%"}, {"measurement": "residual activity", "setting": "[27]", "value": 98.4, "unit": "%"}, {"measurement": "residual activity", "setting": "[28]", "value": 104, "unit": "%"}, {"measurement": "residual activity", "setting": "[29]", "value": 61.7, "unit": "%"}, {"measurement": "residual activity", "setting": "[30]", "value": 100, "unit": "%"}, {"measurement": "residual activity", "setting": "[31]", "value": 92.3, "unit": "%"}, {"measurement": "residual activity", "setting": "[32]", "value": 97.7, "unit": "%"}, {"measurement": "residual activity", "setting": "[33]", "value": 91.3, "unit": "%"}, {"measurement": "residual activity", "setting": "[34]", "value": 92.3, "unit": "%"}, {"measurement": "residual activity", "setting": "[35]", "value": 94.7, "unit": "%"}, {"measurement": "residual activity", "setting": "[36]", "value": 96.3, "unit": "%"}, {"measurement": "residual activity", "setting": "[37]", "value": 98.2, "unit": "%"}, {"measurement": "residual activity", "setting": "[38]", "value": 108, "unit": "%"}, {"measurement": "residual activity", "setting": "[39]", "value": 91.4, "unit": "%"}, {"measurement": "residual activity", "setting": "[40]", "value": 85.2, "unit": "%"}, {"measurement": "residual activity", "setting": "[41]", "value": 115, "unit": "%"}, {"measurement": "residual activity", "setting": "[42]", "value": 92.4, "unit": "%"}]}
